Assay results: patent publication US10201533B2, “Substituted quinolizine derivatives useful as HIV integrase inhibitors” (priority 2013, dated 2019)
Read-outs that look alike come from different tables or passages of the source.

System: HIV-1 (NL4-3 strain)
Test: microbe, parasite or virus in culture
Format: cell-based
Conditions: MT4-GFP cells infected with HIV-1 NL4-3, IP or IC50 from 4-parameter dose response curve
[1] = Human immunodeficiency virus 1, NL43, 0% normal human serum (NHS), read-out: WILD TYPE CELL ASSAY Viking IP (0% NHS)
[2] = Human immunodeficiency virus 1, NL43, 100% normal human serum (NHS), read-out: WILD TYPE CELL ASSAY Viking IP (100% NHS)

## COCC[C@@]1(C)C(=O)c2c(O)c(=O)c(C(=O)NCc3ccccc3F)cn2C[C@@H]1OC [Compound 66]
[1]
  IC50: 2.5 nM
[2]
  IC50: 126 nM

## CC1(C)CCn2cc(C(=O)NCc3cc4ccccn4n3)c(=O)c(O)c2C1=O [Compound 3]
[1]
  IC50: 6.5 nM

## COCC[C@]1(C)C(=O)c2c(O)c(=O)c(C(=O)NCc3cccc(Cl)c3F)cn2C[C@@H]1OC [Compound 65]
0% normal human serum (NHS), read-out: WILD TYPE CELL ASSAY Viking IP (0% NHS)
  IC50: 0.8 nM
100% normal human serum (NHS), read-out: WILD TYPE CELL ASSAY Viking IP (100% NHS)
  IC50: 34 nM

## C[C@]12CCCCC[C@@]1(O)Cn1cc(C(=O)NCc3ccc(F)cc3F)c(=O)c(O)c1C2=O [Compound 101]
[1]
  IC50: 2.1 nM
[2]
  IC50: 105 nM
